Here are results for one compound from US9428753B2, “Use of LXR antagonists for treatment of side effects of elevated glucocorticoid levels” (The Governing Council of the University of Toronto, priority 2013, dated 2016).

In data set [1] the target is T1, LXRα (Homo sapiens, UniProt Q13133).
T1 sequence (Q13133 209-447 limits assumed): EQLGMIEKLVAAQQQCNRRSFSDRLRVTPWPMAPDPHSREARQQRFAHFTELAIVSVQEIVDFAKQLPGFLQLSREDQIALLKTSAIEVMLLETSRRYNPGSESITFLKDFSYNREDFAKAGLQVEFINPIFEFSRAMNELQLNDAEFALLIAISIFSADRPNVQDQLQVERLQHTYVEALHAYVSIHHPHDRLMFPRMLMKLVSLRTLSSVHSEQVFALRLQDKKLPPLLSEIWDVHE
The data set can be described thus: GAL4-LXRα / UAS-luc transfection assay in mouse primary hepatocytes.

Data set [2] deals with IL-6. Description: IL-6 gene expression in LPS activated mouse primary macrophages (RT-QPCR). The format is cell-based. The protocol: The expression of genes involved in immune response IL-1β, IL-6 and GILZ was measured following an overnight treatment with Dex 100 nM, 250 nM T0901317 (T09), and/or 10 μM GSK2033 in LPS activated WT, LXR α −/− and LXRβ −/− mouse primary macrophages, by RT-QPCR. Data represent the Avg±SD, N=3. *P<0.05 by One way ANOVA, Student Newman Keuls.
To assess the ability of GSK2033 to affect GR-mediated inflammatory suppression, a number of gene expression studies were conducted on primary macrophages isolated from WT, LXRα−/− and LXRβ−/− mice. Cells were pre-treated with 10 ng/ml lipopolysaccharide (LPS) for 6 hrs (to induce a potent inflammatory response) followed by treatment of 100 nM Dex, 10 μM GSK2033 and/or 250 nM T09 for 18 hrs.

In data set [3] the test system is Srebp-1c. Description: Srebp-1c gene expression in mouse primary hepatocytes. Type of data set: cell-based. Particulars: WT, LXRα−/− and LXRβ−/− hepatocytes; 250 nM T09 + 10 μM GSK2033.
For data set [4], the system named is Pepck. Description: Pepck gene expression in mouse primary hepatocytes. Type of data set: cell-based.
For data set [5], the target named is T2, LXRβ (Homo sapiens, UniProt P55055).
T2 sequence (P55055 222-460 limits assumed): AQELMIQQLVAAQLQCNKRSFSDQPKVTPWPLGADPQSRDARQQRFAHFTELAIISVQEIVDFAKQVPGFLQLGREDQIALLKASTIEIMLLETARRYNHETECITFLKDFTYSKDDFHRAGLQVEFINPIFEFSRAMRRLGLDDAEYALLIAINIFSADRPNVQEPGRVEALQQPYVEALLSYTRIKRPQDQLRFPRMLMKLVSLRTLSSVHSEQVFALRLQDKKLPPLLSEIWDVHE
The data set can be described thus: GAL4-LXRβ / UAS-luc co-transfection reporter assay in HEK293 cells. Further details: co-transfecting UAS-reporter and GAL4-LBD of the nuclear receptors LXRα, LXRβ and GR; GAL4 (fusion partner); expressed in transfected cells; host or cells: HEK293 cells; mouse primary hepatocytes. The format is cell-based. The method, then:
(§1) RLU=relative luciferase units.
as §1
(§2) Further experiments were then carried out to determine the inhibitory potencies for the individual LXR isoforms in HEK 293 cells by co-transfecting UAS-reporter and GAL4-LBD of the nuclear receptors LXRα, LXRβ and GR and then treating with 8 different concentrations of GSK2033. To assess suppression of ligand activated receptors, the transfected cells were co-treated with increasing doses of GSK2033, in addition to T09091317 or Dex (dexamethasone) (at EC80 of LXR isoforms and GR, respectively).
A number of experiments were carried out to determine the relative inhibitory potencies of GSK2033, Amgen 54 and DMHCl for the individual LXR isoforms in HEK 293 cells by co-transfecting UAS-reporter and GAL4-LBD of the nuclear receptors LXRα, LXRβ and GR and then treating with 6 different concentrations of GSK2033, Amgen 54 and DMHCl.

The target in data set [6] is T1, LXRα. Description: GAL4-LXRα / UAS-luc co-transfection reporter assay in HEK293 cells. The format is cell-based. Further details: co-transfecting UAS-reporter and GAL4-LBD of the nuclear receptors LXRα, LXRβ and GR; GAL4 (fusion partner); expressed in transfected cells; host or cells: HEK293 cells; mouse primary hepatocytes. The method, then: as §1, §1, §2
A number of experiments were carried out to determine the relative inhibitory potencies of GSK2033, Amgen 54 and DMHCl for the individual LXR isoforms in HEK 293 cells by co-transfecting UAS-reporter and GAL4-LBD of the nuclear receptors LXRα, LXRβ and GR and then treating with 6 different concentrations of GSK2033, Amgen 54 and DMHCl. To assess suppression of ligand activated receptors, the transfected cells were co-treated with increasing doses of GSK2033, Amgen 54 and DMHCl, in addition to T09091317 or Dex (at EC80 of LXR isoforms and GR, respectively).

Data set [7] deals with tyrosine aminotransferase (TAT). Description: TAT gene expression in mouse primary hepatocytes. Type of data set: cell-based. Particulars: WT, LXRα−/− and LXRβ−/− hepatocytes; 100 nM Dex + 10 μM GSK2033. The method, then: T09 treatment was used as a positive control for LXR activity. (D) Glucose output over 24 hrs from LXRα−/− and LXRβ−/− mouse primary hepatocytes following Dex 100 nM±10 μM GSK2033 treatment. (E) Glucose output over 8 hrs from WT hepatocytes following Dex 500 nM±10 μM GSK2033 treatments. […] Legend: V=vehicle, G=GSK2033 (LXR antagonist); D=dexamethasone (GR agonist); and T09=T0901317 (LXR agonist).

Setting [8] is: preliminary experiment, 3 doses.

pIC50: −log10 of the molar value. Like-named read-outs stand apart in the source and are kept apart here.

Regarding `Cc1cc(C)c(S(=O)(=O)N(Cc2ccc(-c3cccc(S(C)(=O)=O)c3)cc2)Cc2ccc(C(F)(F)F)o2)c(C)c1` [GSK2033, 2,4,6-trimethyl-N-((3′-(methylsulfonyl)-[1,1′-biphenyl]-4-yl)methyl)-N-((5-(trifluoromethyl)furan-2-yl)methyl)benzenesulfonamide], the “right-shift of LXRα IC50, primary hepatocytes vs HEK293” value in data set [1] is reported as around 10 fold. Besides, in data set [2] (LPS activated macrophages, 250 nM T09 + 10 μM GSK2033), the “T09 mediated suppression of IL-6 under GSK2033 co-treatment” value is listed as “antagonized”. Also, the “Dex-mediated IL-6 repression under GSK2033 co-treatment” value in data set [2] (WT, LXRα−/− and LXRβ−/− macrophages, LPS 10 ng/ml 6 hrs, 100 nM Dex + 10 μM GSK2033, 18 hrs) is given as “unaffected”. In data set [3], the “T09 induction of Srebp-1c under GSK2033 co-treatment” value is “significantly decreased”. Besides, the Pepck expression in data set [4] (Example 3, LXRα−/− hepatocytes, 100 nM Dex + 10 μM GSK2033) was 3.2 fold; in data set [4] (Example 3, LXRβ−/− hepatocytes, 100 nM Dex + 10 μM GSK2033), “remained unchanged”; in data set [4] (Example 3, WT hepatocytes, 100 nM Dex + 10 μM GSK2033), 1.9 fold; in data set [4] (Example 6, LXRα−/− hepatocytes, 100 nM Dex + 10 μM GSK2033), 0.8 fold; in data set [4] (Example 6, LXRα−/− hepatocytes, 10 μM Cortisol + 10 μM GSK2033), 1.7 fold; in data set [4] (Example 6, LXRα−/− hepatocytes, 10 μM Prednisone + 10 μM GSK2033) it was 1.24 fold. For the same compound, the Pepck expression in data set [4] (Example 6, LXRα−/− hepatocytes, 10 μM Triamcinolone acetonide + 10 μM GSK2033) is 0.6 fold; in data set [4] (Example 8, LXRα−/− hepatocytes, 100 nM Dex + 10 μM LXR antagonist) it was 2.7 fold. The pIC50 in data set [5] (IC50 against LXRβ, Example 1, T0901317 at EC80 (100 nM), 8 concentrations) was 7.43; in data set [5] (IC50 to inhibit LXRβ, Example 7, T0901317 100 nM, 6 concentrations), 8.19; in data set [6] (Example 1, T0901317 at EC80 (250 nM), 8 concentrations, read-out: IC50 against LXRα), 7.10; in data set [6] (Example 7, T0901317 250 nM, 6 concentrations, read-out: IC50 to inhibit LXRα), 7.66. Moreover, in data set [5] (setting [8]), the “basal repression of LXRβ” value is “basal repression”. The “basal repression of LXRα” value in data set [6] (setting [8]) is on record as “basal repression”. For the same compound, in data set [7], the “Dex induction of TAT under GSK2033 co-treatment” value is listed as “not altered”.
